This is an account of results in patent US9309243B2, “Imidazopyridine derivatives as modulators of TNF activity” (UCB Biopharma SPRL, priority 2012, dated 2016).

A word on the melting point: it is the temperature, or range, at which the solid turns liquid.

Structures are written as SMILES.

In turn, `Cc1nc2cc(F)c(-c3cnc(C4(O)COC4)nc3)cn2c1Cc1ccccc1OC(F)F` [Example 322, 3-[5-(3-{[2-(Difluoromethoxy)phenyl]methyl}-7-fluoro-2-methylimidazo[1,2-a]pyridin-6-yl)pyrimidin-2-yl]oxetan-3-ol] came in with a melting point of 143 to 144 °C.
